Data published in patent US20140357512A1, “HISTONE DEACETYLASE (HDAC) BIOMARKERS IN MULTIPLE MYELOMA” (priority 2013, published 2014).

System: human myeloma cell line MM.1S
Experiment: SILAC acetylated-lysine peptide profiling, HDAC inhibitor vs DMSO (light/heavy ratio)
Assay type: cell-based
From the text: An embodiment of the invention comprises utilizing the SILAC method in order to quantitate changes in protein expression between two or more populations of cells. The SILAC method is a technique based on mass spectrometry that detects differences in protein abundance among samples using non-radioactive isotopic labeling. The SILAC method is known in the art, and described in detail in Ong et al., “Stable Isotope Labeling by Amino Acids in Cell Culture, SILAC, as a Simple and Accurate Approach to Expression Proteomics”, Molecular & Cellular Proteomics, vol. 1, pp. 376-386 (2002), which is incorporated herein by reference in its entirety.
Briefly, the SILAC method involves growing two populations of cells in cell culture. The first population of cells is grown in growth media containing normal amino acids (“normal media”). The second population of cells is grown in media lacking a standard essential amino acid (such as lysine), but is then supplemented with a non-radioactive, isotopically labeled form of that essential amino acid (such as lysine labeled with ^13C atoms, rather than normal ^12C atoms), which is called “heavy media”. When the two populations of cells are each growing in the medium, they incorporate the amino acids into all of their proteins. The growth of cells maintained in the heavy media is no different from that in normal media. All peptides containing the heavy amino acids are heavier than their normal counterparts. The cells from each of the two populations of cells are lysed. The lysates from each of the two cell populations are then combined. The combined cell lysates are then analyzed by mass spectrometry. Pairs of chemically identical peptides of different stable isotope composition can be differentiated in a mass spectrometer due to their difference in mass. The ratio of peak intensities in the mass spectrum for such peptide pairs reflects the abundance ratio for the two proteins.
This example describes SILAC studies that were performed to compare the effects of three different HDAC inhibitors (Compound A, Compound B, and tubastatin A) to a control on a human multiple myeloma cell line. The HDAC inhibitors were also compared amongst themselves to determine differences in their effects.
A human myeloma cell line MM.1S was grown using either ^12C (light) or ^13C (heavy) lysine containing culture medium. The “heavy” cells were treated with DMSO as the control, and the “light” cells were treated with a single HDAC inhibitor at 37° C. for 6 hours. The heavy and light cells were lysed, and the lysates were mixed in 1:1 ratio and digested with the protease trypsin. The acetylated lysine containing peptides (due to the action of the HDAC inhibitor) in the digested peptide pool were captured by a non-specific anti-acetylated lysine antibody cocktail (the antibodies identify both light and heavy acetylated peptides), and subjected to mass spectrometry analysis in order to identify thousands of individual peptides.
Thousands of peptides were identified in pairs (^12C and ^13C) due to their known mass differences. The amino acid sequence and quantitative ratio (Light/Heavy) of a given peptide in two differentially treated cell lysates were then determined and annotated with their possible protein (gene) sources.
As stated above, three HDAC inhibitors (Compound A, Compound B, and Tubastatin A) were used. Thus, the SILAC method was performed three times, with a different HDAC inhibitor compared to a control each time. Accordingly, there are three pairs of quantitative data in the table below, i.e., Compound A:DMSO, Compound B:DMSO, and Tubastatin A:DMSO. A cut-off of 1.30 fold of change (increase or decrease) was then used to determine “changed” or “+” in the table, and any peptides with a fold of change less than 1.3 fold were determined to be “unchanged” or “0” in the table. Those peptides that were not identified were marked as “NA” in the table. […]

SMILES: O=C(NO)c1cnc(NC2(c3cccc(F)c3)CCCCC2)nc1 [Compound B, 2-((1-(3-fluorophenyl)cyclohexyl)amino)-N-hydroxypyrimidine-5-carboxamide]
- L/H ratio of acetylated peptide (LCMLYHPDK(ac)HRDPELK (SEQ ID NO: 389), Isoform 3 of DnaJ homolog subfamily C member 11 [45], DNAJC11): −0.69 log 2
- L/H ratio of acetylated peptide (LHSNYYK(ac)HK (SEQ ID NO: 371), Uncharacterized protein C6orf125 [69], C6orf125): 0.52 log 2
- L/H ratio of acetylated peptide (LHYK(ac)HESWLLHR (SEQ ID NO: 385), Deoxycytidine kinase [211], DCK): −0.43 log 2
- light to heavy ratio (L/H ratio) of acetylated peptide, log 2 scale (LIK(ac)VHLDK (SEQ ID NO: 215), 40S ribosomal protein S7 [155], RPS7): 0.00
- L/H ratio of acetylated peptide (LK(ac)ADVFK (SEQ ID NO: 375), Isoform 1 of Chromodomain-helicase-DNA-binding protein 4 [959], CHD4): −0.45 log 2
- L/H ratio of acetylated peptide (LK(ac)AEKYR (SEQ ID NO: 414), Isoform 1 of Leucine-rich repeat and IQ domain-containing protein 3 [557], LRRIQ3): −1.00 log 2
- L/H ratio of acetylated peptide LYK(ac)[…] (SEQ ID NO: 4) (LMNB1 [261], log 2 scale, drug vs DMSO): 0.48
- L/H ratio of acetylated peptide […](ac)LENAR (SEQ ID NO: 58) (LMNB1 [271], log 2 scale, drug vs DMSO): 0.00
- light to heavy ratio (L/H ratio) of acetylated peptide, log 2 scale (LNEQK(ac)LAQLEEAK (SEQ ID NO: 133), ATP synthase subunit b mitochondrial [131], ATP5F1): 0.00
- L/H ratio of acetylated peptide (LNPK(ac)[…] (SEQ ID NO: 448), Serine hydroxymethyltransferase mitochondrial [200], SHMT2): −0.41 log 2
- L/H ratio of acetylated peptide GFGYK(ac)GSCFHR (SEQ ID NO: 59) (LOC390956 [71], log 2 scale, drug vs DMSO): 0.00
- light to heavy ratio (L/H ratio) of acetylated peptide, log 2 scale (LSLDK(ac)VFR (SEQ ID NO: 226), Stomatin-like protein 2 [145], STOML2): 0.00
- light to heavy ratio (L/H ratio) of acetylated peptide, log 2 scale (LTEAKPVDK(ac)VK (SEQ ID NO: 221), cDNA FLJ60124 highly similar to Mitochondrial dicarboxylate carrier [142], SLC25A10): 0.00
- L/H ratio of acetylated peptide (LVQTAELTK(ac)VFEIR (SEQ ID NO: 398), Glia maturation factor gamma [119], GMFG): −0.80 log 2
- light to heavy ratio (L/H ratio) of acetylated peptide, log 2 scale (LYATMEK(ac)HK (SEQ ID NO: 251), Histone acetyltransferase p300 [1590], EP300): 0.00
- light to heavy ratio (L/H ratio) of acetylated peptide AVLK(ac)[…] (SEQ ID NO: 262) (Laminin receptor-like protein LAMRL5 [89], SNORA6, RPSAP15, SNORA62, RPSA, drug:DMSO): 0.00 log 2
- light to heavy ratio (L/H ratio) of acetylated peptide SYVSEK(ac)DVTSAK (SEQ ID NO: 628) (Leucine-rich PPR motif-containing protein mitochondrial [1332], gene LRPPRC, inhibitor:DMSO): 0.00 log 2
- L/H ratio of acetylated peptide ICCQFDFK(ac)R (SEQ ID NO: 60) (MAN2A1 [373], log 2 scale, drug vs DMSO): 0.00
- L/H ratio of acetylated peptide YLTNQK(ac)NSNSK(ac)NDR (SEQ ID NO: 17) (MEAF6 [69:74], log 2 scale, drug vs DMSO): 0.43
- light to heavy ratio (L/H ratio) of acetylated peptide, log 2 scale (MKENQK(ac)[…] (SEQ ID NO: 169), Isoform 2 of Heat shock protein HSP 90-alpha [611], HSP90AA1): 0.00
- L/H ratio of acetylated peptide (MLEK(ac)DVCEK (SEQ ID NO: 446), Isoform 1 of Protein RUFY3 [382], RUFY3): 0.62 log 2
- L/H ratio of acetylated peptide (MLK(ac)QMLFR (SEQ ID NO: 433), Proteasome subunit beta type-7 [127], PSMB7): −0.47 log 2
- L/H ratio of acetylated peptide TLVLSDK(ac)HSPQK(ac)K (SEQ ID NO: 5) (MLL3 [2809:2814], log 2 scale, drug vs DMSO): 0.38
- L/H ratio of acetylated peptide LNK(ac)DQWEER (SEQ ID NO: 10) (MSN [165], log 2 scale, drug vs DMSO): 0.71
- light to heavy ratio (L/H ratio) of acetylated peptide VHLSQK(ac)YK (SEQ ID NO: 343) (Matrin-3 [473], MATR3, SNHG4, drug:DMSO): 0.40 log 2
- light to heavy ratio (L/H ratio) of acetylated peptide FLNK(ac)LAEER (SEQ ID NO: 342) (Matrin-3 [836], MATR3, SNHG4, drug:DMSO): −0.44 log 2
- light to heavy ratio (L/H ratio) of acetylated peptide MTDK(ac)CFR (SEQ ID NO: 573) (Mitochondrial import inner membrane translocase subunit Tim13 [45], gene TIMM13, inhibitor:DMSO): 0.00 log 2
- light to heavy ratio (L/H ratio), log 2 scale, acetylated peptide YVK(ac)ALFR (SEQ ID NO: 771) (Mitochondrial import receptor subunit TOM70 [188], gene TOMM70A, drug:DMSO): 0.00
- light to heavy ratio (L/H ratio) of acetylated peptide LSLLSK(ac)FR (SEQ ID NO: 564) (Mitochondrial trifunctional protein beta subunit (Fragment) [100], gene HADHB, inhibitor:DMSO): 0.00 log 2
- light to heavy ratio (L/H ratio) of acetylated peptide EIFQNEK(ac)R (SEQ ID NO: 288) (NAD(P) transhydrogenase mitochondrial [70], NNT, drug:DMSO): 0.00 log 2
- light to heavy ratio (L/H ratio) of acetylated peptide AISPDK(ac)DNFYFDVK (SEQ ID NO: 284) (NAD(P) transhydrogenase mitochondrial [403], NNT, drug:DMSO): 0.00 log 2
- light to heavy ratio (L/H ratio) of acetylated peptide, log 2 scale (NIDPK(ac)PCTPR (SEQ ID NO: 148), Isoform 1 of DAZ-associated protein 1 [83], DAZAP1): 0.00
